According to ChEMBL document CHEMBL5543060, “Technologies of targeting histone deacetylase in drug discovery: Current progress and emerging prospects” (Eur J Med Chem, 2023):
Blank lines part the entries; values can stand above or below the compound they belong to.

Columns and labels:
[1] = target: T1, Protein deacetylase HDAC6 (Homo sapiens, UniProt Q9UBN7); assay: Inhibition of human recombinant HDAC6 using fluorogenic HDAC substrate by fluorescence assay
T1 sequence (Q9UBN7 whole entry): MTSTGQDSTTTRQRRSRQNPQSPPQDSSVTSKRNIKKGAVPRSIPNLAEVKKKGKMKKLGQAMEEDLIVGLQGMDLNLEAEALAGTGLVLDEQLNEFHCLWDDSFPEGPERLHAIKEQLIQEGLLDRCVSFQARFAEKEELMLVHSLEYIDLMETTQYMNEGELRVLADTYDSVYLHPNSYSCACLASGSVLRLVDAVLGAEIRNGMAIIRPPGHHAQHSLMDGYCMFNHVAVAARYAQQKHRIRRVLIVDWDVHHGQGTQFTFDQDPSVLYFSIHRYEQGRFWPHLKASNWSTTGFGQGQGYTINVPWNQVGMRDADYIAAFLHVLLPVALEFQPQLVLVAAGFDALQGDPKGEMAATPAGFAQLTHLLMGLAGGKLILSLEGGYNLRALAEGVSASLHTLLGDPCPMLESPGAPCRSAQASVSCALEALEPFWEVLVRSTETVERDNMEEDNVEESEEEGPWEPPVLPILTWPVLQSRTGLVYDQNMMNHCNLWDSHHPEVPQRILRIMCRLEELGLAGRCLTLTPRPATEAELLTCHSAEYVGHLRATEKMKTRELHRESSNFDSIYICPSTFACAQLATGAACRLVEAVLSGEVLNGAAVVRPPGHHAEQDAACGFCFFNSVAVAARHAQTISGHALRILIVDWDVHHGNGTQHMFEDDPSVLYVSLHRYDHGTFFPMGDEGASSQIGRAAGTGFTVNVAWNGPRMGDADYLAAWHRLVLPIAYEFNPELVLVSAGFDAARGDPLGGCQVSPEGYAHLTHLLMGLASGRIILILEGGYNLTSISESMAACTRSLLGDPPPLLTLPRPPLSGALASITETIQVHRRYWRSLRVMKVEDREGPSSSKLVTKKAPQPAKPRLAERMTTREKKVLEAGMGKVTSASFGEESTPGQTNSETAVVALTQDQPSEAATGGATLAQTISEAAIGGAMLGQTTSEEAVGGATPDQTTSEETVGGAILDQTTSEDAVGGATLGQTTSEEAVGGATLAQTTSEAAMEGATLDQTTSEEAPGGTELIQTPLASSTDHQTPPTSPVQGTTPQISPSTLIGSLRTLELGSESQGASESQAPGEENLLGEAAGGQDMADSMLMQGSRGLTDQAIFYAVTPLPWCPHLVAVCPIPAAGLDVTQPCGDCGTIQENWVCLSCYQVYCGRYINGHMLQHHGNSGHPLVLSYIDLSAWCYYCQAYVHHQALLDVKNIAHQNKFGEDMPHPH

Histone deacetylase 8 [2] = target: T2, Histone deacetylase 8 (Homo sapiens, UniProt Q9BY41); assay: Inhibition of human HDAC8 using Boc-Lys (Ac)-AMC as substrate incubated for 60 mins by fluorimetric assay
T2 sequence (Q9BY41 whole entry): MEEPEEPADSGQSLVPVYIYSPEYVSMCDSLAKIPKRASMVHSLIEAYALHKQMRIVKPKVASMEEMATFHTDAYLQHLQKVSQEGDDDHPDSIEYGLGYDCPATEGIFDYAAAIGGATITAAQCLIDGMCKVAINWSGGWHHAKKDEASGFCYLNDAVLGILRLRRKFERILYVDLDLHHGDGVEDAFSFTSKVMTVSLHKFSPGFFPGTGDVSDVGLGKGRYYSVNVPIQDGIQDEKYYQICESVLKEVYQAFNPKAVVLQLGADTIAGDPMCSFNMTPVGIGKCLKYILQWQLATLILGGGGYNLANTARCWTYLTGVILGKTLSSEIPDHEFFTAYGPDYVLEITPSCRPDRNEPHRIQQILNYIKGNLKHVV

[3] = target: T3, Protein cereblon/Histone deacetylase 8 (Homo sapiens, UniProt Q9BY41+Q96SW2); assay: PROTAC activity at HDAC8/CRBN in human HCT-116 cells assessed as degradation of HDAC8 by Western blot analysis; type: cell-based
T3 sequence (Q96SW2 whole entry, one chain of several): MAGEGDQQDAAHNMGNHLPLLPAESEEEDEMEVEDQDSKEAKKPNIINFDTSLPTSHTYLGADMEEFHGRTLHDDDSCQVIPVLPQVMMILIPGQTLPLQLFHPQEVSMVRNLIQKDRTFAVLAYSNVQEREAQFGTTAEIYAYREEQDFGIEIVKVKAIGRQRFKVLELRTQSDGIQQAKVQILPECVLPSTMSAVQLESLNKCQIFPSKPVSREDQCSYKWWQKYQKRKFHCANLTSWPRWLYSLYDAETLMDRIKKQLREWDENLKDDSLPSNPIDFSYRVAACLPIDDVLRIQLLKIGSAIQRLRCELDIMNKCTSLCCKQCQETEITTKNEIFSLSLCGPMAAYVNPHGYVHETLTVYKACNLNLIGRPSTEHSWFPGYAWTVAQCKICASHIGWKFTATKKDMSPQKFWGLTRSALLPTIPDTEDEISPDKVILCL

Histone deacetylase 3 [4] = target: T4, Histone deacetylase 3 (Homo sapiens, UniProt O15379); assay: Inhibition of HDAC3 (unknown origin)
T4 sequence (O15379 whole entry): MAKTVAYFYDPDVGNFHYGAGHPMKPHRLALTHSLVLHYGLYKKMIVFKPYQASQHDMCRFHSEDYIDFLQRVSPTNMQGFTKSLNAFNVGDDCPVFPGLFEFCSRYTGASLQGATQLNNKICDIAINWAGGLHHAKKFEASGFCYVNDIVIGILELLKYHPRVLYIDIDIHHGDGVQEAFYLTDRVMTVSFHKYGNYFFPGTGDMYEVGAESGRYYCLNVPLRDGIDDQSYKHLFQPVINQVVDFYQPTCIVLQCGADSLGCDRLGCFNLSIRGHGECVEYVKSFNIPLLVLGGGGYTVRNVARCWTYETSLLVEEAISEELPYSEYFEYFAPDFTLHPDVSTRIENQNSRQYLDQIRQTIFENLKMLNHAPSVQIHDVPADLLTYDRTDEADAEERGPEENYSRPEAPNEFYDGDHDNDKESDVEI

[5] = target: T1, Protein deacetylase HDAC6; assay: Inhibition of HDAC6 (unknown origin)
Histone deacetylase 1 [6] = target: T5, Histone deacetylase 1 (Homo sapiens, UniProt Q13547); assay: Inhibition of HDAC1 (unknown origin) using ZMAL (Z-Lys(Ac)-AMC as fluorogenic substrate pre-incubated for 30 mins measured for 1 hr by fluorescence based analysis
T5 sequence (Q13547 whole entry): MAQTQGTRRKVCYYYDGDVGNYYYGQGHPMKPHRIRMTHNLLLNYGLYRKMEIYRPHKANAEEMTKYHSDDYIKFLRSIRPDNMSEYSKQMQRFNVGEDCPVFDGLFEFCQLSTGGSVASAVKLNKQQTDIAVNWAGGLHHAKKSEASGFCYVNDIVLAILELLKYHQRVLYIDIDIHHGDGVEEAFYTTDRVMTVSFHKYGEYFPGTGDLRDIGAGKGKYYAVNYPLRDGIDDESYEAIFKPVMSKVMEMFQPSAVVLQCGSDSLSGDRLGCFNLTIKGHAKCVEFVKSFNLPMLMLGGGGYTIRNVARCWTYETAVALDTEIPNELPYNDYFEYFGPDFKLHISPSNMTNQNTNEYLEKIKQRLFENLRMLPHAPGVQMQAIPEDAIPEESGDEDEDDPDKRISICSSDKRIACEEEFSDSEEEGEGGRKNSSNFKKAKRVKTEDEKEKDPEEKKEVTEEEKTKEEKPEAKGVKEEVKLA

[7] = target: T1, Protein deacetylase HDAC6; assay: Inhibition of HDAC6 (unknown origin) using Ac-peptide as substrate preincubated for 15 mins followed by substrate addition and measured after 1 hr by fluorescence based assay
[8] = target: T6, Vascular endothelial growth factor receptor 2 (Homo sapiens, UniProt P35968); assay: Inhibition of VEGFR2 (unknown origin) using poly (Glu,Tyr) 4:1 as substrate measured after 1 hr in presence of ATP by spectrophotometric analysis
T6 sequence (P35968 whole entry): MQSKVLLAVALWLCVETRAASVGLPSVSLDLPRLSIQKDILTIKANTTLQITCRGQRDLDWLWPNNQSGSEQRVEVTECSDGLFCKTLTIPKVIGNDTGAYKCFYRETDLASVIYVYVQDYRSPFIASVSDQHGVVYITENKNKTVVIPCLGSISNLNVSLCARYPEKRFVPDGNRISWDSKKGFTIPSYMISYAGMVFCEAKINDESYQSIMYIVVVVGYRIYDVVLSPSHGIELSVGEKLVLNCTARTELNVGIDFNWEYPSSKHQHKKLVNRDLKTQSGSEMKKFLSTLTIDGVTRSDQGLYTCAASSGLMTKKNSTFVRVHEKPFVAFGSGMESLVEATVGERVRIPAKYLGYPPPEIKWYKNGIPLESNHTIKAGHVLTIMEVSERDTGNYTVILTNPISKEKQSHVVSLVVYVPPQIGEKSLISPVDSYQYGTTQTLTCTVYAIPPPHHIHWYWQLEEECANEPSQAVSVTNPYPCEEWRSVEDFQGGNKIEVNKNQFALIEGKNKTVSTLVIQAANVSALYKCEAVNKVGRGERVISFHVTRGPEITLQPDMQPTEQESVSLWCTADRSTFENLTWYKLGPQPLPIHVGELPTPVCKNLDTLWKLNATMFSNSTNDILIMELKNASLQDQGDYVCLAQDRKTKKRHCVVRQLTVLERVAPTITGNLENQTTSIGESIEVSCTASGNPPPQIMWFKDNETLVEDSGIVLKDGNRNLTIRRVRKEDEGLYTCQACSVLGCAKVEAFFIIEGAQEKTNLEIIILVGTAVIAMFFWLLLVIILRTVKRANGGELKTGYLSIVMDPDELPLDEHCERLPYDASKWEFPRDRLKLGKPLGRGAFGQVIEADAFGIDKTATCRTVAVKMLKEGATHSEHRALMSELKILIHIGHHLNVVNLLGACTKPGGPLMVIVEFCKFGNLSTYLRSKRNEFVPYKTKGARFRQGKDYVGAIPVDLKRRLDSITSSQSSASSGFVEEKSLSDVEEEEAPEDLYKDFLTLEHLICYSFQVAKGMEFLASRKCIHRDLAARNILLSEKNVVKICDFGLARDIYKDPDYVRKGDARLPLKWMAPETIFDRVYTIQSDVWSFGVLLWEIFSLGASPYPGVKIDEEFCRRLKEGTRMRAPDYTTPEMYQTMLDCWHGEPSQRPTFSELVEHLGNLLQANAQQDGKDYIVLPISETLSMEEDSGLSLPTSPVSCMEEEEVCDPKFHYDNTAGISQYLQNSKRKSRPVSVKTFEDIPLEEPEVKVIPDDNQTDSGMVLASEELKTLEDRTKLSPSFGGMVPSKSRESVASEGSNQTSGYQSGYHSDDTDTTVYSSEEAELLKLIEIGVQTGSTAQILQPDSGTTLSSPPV

[9] = target: Vascular endothelial growth factor receptor 1 (Homo sapiens, UniProt P17948); assay: Inhibition of VEGFR1 (unknown origin)
Histone deacetylase 1 [10] = target: T5, Histone deacetylase 1; assay: Inhibition of human recombinant HDAC1 using fluorogenic substrate incubated for 30 mins by fluorescence based assay
[11] = target: T1, Protein deacetylase HDAC6; assay: Inhibition of HDAC6 (unknown origin) using biotinylated histone H3 KAc peptide (1 to 21 residues) as substrate by HTRF assay
[12] = Metabolic stability in human Hepatocyte assessed as half life by LC-MS/MS analysis; type: ADME, cell-based; details: hepatocytes
Histone deacetylase 8 [13] = target: T2, Histone deacetylase 8; assay: Inhibition of human recombinant His-tagged HDAC8 expressed in Escherichia coli BL21 (DE3) using ArgHisLysLys(Ac) as substrate pre-incubated for 1 hr and measured after 1 hr by fluorescence based analysis
[14] = target: T7, Bromodomain-containing protein 4 (Homo sapiens, UniProt O60885); assay: Inhibition of BRD4 BD1 (unknown origin) incubated for 15 mins by TR-FRET analysis
[15] = target: T7, Bromodomain-containing protein 4; assay: Inhibition of BRD4 BD2 (unknown origin) by TR-FRET assay
Histone deacetylase 1 [16] = target: T5, Histone deacetylase 1; assay: Inhibition of HDAC1 (unknown origin) by fluorescence based assay
[17] = target: von Hippel-Lindau disease tumor suppressor/Protein deacetylase HDAC6 (Homo sapiens, UniProt Q9UBN7+P40337); assay: Protac activity at VHL/HDAC6 in human MDA-MB-468 cells assessed as HDAC6 degradation measured after 14 hrs by Western blot analysis; type: cell-based
Sequence of von Hippel-Lindau disease tumor suppressor/Protein deacetylase HDAC6 (P40337 whole entry, one chain of several): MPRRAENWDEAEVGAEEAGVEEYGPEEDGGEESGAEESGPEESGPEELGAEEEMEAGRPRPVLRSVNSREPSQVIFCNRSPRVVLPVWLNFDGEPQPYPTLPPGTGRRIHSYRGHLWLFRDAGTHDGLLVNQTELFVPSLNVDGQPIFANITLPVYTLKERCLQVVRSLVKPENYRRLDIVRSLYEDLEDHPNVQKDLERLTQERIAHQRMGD

Histone deacetylase 3 [18] = target: T4, Histone deacetylase 3; assay: Inhibition of HDAC3 (unknown origin) at 10 uM relative to control
Homo sapiens = organism: Homo sapiens; assay: Inhibition of Topoisomerase 2 (unknown origin) at 50 to 100 uM incubated for 15 mins in the presence of ATP by electrophoretic analysis; details: dose 50-100 µM
[19] = target: T3, Protein cereblon/Histone deacetylase 8; assay: PROTAC activity at HDAC8/CRBN in human HCT-116 cells assessed as degradation of HDAC8 measured after 10 hrs in presence of E3 ligase inhibitor by Western blot analysis; type: cell-based
[20] = target: von Hippel-Lindau disease tumor suppressor/Histone deacetylase 1 (Homo sapiens, UniProt Q13547+P40337); assay: PROTAC activity at VHL/HDAC1 in human ES1 cells assessed as HDAC1 degradation by fluorescence based assay; type: cell-based
Sequence of von Hippel-Lindau disease tumor suppressor/Histone deacetylase 1 (Q13547 whole entry): as the sequence (Q13547 whole entry) above
Sequence of von Hippel-Lindau disease tumor suppressor/Histone deacetylase 1 (P40337 whole entry): as the sequence (P40337 whole entry, one chain of several) above

[21] = target: von Hippel-Lindau disease tumor suppressor/Histone deacetylase 2 (Homo sapiens, UniProt Q92769+P40337); assay: PROTAC activity at VHL/HDAC2 in human ES1 cells assessed as HDAC2 degradation by fluorescence based assay; type: cell-based
Sequence of von Hippel-Lindau disease tumor suppressor/Histone deacetylase 2 (Q92769 whole entry): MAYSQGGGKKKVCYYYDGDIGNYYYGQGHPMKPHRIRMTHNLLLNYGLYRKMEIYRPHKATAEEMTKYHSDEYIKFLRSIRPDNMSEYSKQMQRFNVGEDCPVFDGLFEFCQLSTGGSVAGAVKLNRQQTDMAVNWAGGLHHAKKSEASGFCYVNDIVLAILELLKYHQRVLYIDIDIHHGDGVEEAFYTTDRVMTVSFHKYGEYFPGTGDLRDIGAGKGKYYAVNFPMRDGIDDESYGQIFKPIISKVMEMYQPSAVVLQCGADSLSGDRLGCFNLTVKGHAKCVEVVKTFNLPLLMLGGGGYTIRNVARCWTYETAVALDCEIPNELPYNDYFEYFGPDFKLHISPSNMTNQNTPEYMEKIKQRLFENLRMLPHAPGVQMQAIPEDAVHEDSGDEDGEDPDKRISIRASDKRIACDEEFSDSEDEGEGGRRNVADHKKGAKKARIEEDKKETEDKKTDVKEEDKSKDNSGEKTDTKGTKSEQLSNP
Sequence of von Hippel-Lindau disease tumor suppressor/Histone deacetylase 2 (P40337 whole entry): as the sequence (P40337 whole entry, one chain of several) above

[22] = target: Protein cereblon/Histone deacetylase 3 (Homo sapiens, UniProt O15379+Q96SW2); assay: Protac activity at CRBN/HDAC3 in human MDA-MB-468 cells assessed as HDAC3 degradation measured after 14 hrs by Western blot analysis; type: cell-based
Sequence of Protein cereblon/Histone deacetylase 3 (O15379 whole entry): as the sequence (O15379 whole entry) above
Sequence of Protein cereblon/Histone deacetylase 3 (Q96SW2 whole entry): as the sequence (Q96SW2 whole entry, one chain of several) above

[23] = target: Cyclin-dependent kinase 4 (Homo sapiens, UniProt P11802); assay: Inhibition of CDK4 (unknown origin)
Sequence of Cyclin-dependent kinase 4 (P11802 whole entry): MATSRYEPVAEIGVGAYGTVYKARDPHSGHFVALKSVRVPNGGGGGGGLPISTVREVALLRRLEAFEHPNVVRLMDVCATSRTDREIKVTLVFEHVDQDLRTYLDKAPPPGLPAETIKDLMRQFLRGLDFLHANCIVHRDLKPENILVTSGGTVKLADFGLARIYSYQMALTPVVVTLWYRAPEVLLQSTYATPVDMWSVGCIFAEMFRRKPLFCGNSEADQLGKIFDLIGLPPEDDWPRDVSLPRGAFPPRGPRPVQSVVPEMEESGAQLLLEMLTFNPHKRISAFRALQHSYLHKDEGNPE

Histone deacetylase 3 [24] = target: T4, Histone deacetylase 3; assay: Inhibition of HDAC3 (unknown origin) using biotinylated histone H3 KAc peptide as substrate pretreated with compound for 1 hrs followed by substrate addition measured after 1 hrs by microplate reader analysis by HTRF assay
Histone deacetylase 1 [25] = target: T5, Histone deacetylase 1; assay: Inhibition of human recombinant HDAC1 using Ac-RHKK(Acetyl)-AMC peptide as fluorogenic substrate pre-incubated for 30 mins followed by substrate addition and measured for 60 mins by fluorescence based analysis
Histone deacetylase 2 = Histone deacetylase 2 (Homo sapiens, UniProt Q92769); assay: Inhibition of human recombinant HDAC2 using Ac-RHKK(Acetyl)-AMC peptide as fluorogenic substrate pre-incubated for 30 mins followed by substrate addition and measured for 60 mins by fluorescence based analysis
Sequence of Histone deacetylase 2 (Q92769 whole entry): as the sequence (Q92769 whole entry) above

Histone deacetylase 8 [26] = target: T2, Histone deacetylase 8; assay: Inhibition of HDAC8 (unknown origin) using Fluoro-Substrate Peptide as substrate by fluorescence based assay
[27] = target: T6, Vascular endothelial growth factor receptor 2; assay: Inhibition of VEGFR2 (unknown origin) expressed in baculovirus infected insect cells using biotinylated-GGGGQDGKDYIVLPI peptide as substrate incubated for 1 to 4 hrs by TR-FRET assay
Histone deacetylase 1 [28] = target: T5, Histone deacetylase 1; assay: Inhibition of HDAC1 (unknown origin)

- IC50 [1]: 80 nM
- IC50 (Histone deacetylase 8 [2]): 8000 nM
Structure (SMILES): O=C(COc1ccc2c(c1)OC1(CCN(Cc3cc(Cl)cc(Cl)c3)CC1)CC2=O)NO

- IC50 (Histone deacetylase 1 [6]): 742 nM
- IC50 [1]: 15 nM
Structure (SMILES): O=C(Cc1ccc(C(=O)NO)cc1)Nc1ccc2ncnc(Nc3ccc(Br)c(F)c3)c2c1

- IC50 [7]: > 50 nM
Structure (SMILES): CCCNNC(=O)/C=C/c1ccc(CNCCc2c(C)[nH]c3ccccc23)cc1

- IC50 (Histone deacetylase 8 [13]): 2000 nM
Structure (SMILES): O=C(CCCN1CCN(C(=O)Nc2ccnc3ccccc23)CC1)NO

- IC50 [1]: 80 nM
- IC50 (Histone deacetylase 8 [2]): 9000 nM
Structure (SMILES): O=C(COc1ccc2c(c1)OC1(CCN(Cc3cc(F)cc(F)c3)CC1)CC2=O)NO

- IC50 (Histone deacetylase 1 [6]): 102 nM
- IC50 [1]: 3 nM
Structure (SMILES): Cc1ccccc1/C=C/C(=O)Nc1ccc(C(=O)NS(=O)(=O)c2ccc(NCCCCCCC(=O)NO)c([N+](=O)[O-])c2)c(Oc2ccccc2)c1

- DC50 [19]: 250 nM
Structure (SMILES): COc1ccc(C(=O)NO)cc1NCc1ccc(OCc2cn(CCCCCNc3cccc4c3C(=O)N(C3CCC(=O)NC3=O)C4=O)nn2)cc1 (configuration not stated)

- DC50 [20]: 650 nM
- DC50 [21]: 2000 nM
Structure (SMILES): CCCNNC(=O)c1ccc(-c2ccc(NC(=O)CCCCCCC(=O)N[C@H](C(=O)N3C[C@H](O)C[C@H]3C(=O)N[C@@H](C)c3ccc(-c4scnc4C)cc3)C(C)(C)C)cc2)cc1

More lines, now with the values behind:

Structure (SMILES): O=C1CCC(N2C(=O)c3cccc(NCCCCCCCCCCCNC(=O)Nc4cccc(SCc5cn(-c6cccc(C(=O)NO)c6)nn5)c4)c3C2=O)C(=O)N1 (configuration not stated)
- DC50 [3]: 53 nM

Structure (SMILES): Nc1ccccc1NC(=O)Cc1ccc2ncccc2c1
- IC50 (Histone deacetylase 3 [4]): 560 nM

Structure (SMILES): O=C(CS)Nc1ccc(Cn2c3c(c4ccccc42)CS(=O)(=O)CC3)cc1
- IC50 [5]: 130 nM

Structure (SMILES): Cc1c2ccc(N(C)c3ccnc(Nc4ccc(NC(=O)CCCCCCC(=O)NO)cc4)n3)cc2nn1C
- IC50 [8]: 16 nM
- IC50 [9]: 18 nM
- IC50 (Histone deacetylase 1 [10]): 120 nM
- IC50 [11]: 94 nM
- half-life [12]: < 15 min

Structure (SMILES): Cc1sc2c(c1C)C(c1ccc(Cl)cc1)=N[C@@H](CC(=O)Nc1ccc(C(=O)Nc3ccccc3[N+](=O)[O-])cc1)c1nnc(C)n1-2
- IC50 [14]: 720 nM
- IC50 [15]: 74 nM
- IC50 (Histone deacetylase 1 [16]): 290 nM

Structure (SMILES): Cc1ncsc1-c1ccc([C@H](C)NC(=O)[C@@H]2C[C@@H](O)CN2C(=O)[C@@H](NC(=O)COCCOCCOCC(=O)NCc2cccc(CNc3ncc(-c4nnc(C(F)F)o4)cn3)c2)C(C)(C)C)cc1
- DC50 [17]: 686 nM

Structure (SMILES): CN(c1ccccc1)c1ncc(NC(=O)CS)cn1
- IC50 (Histone deacetylase 1 [6]): 2000 nM
- IC50 [1]: 73 nM

Structure (SMILES): O=C(/C=C/c1ccc(CSc2nc3[nH]ncc3c(=O)n2-c2ccccc2)cc1)NO
- inhibition (Histone deacetylase 3 [18]): 88%
- inhibition (Homo sapiens): 82.1%

Structure (SMILES): Cc1ncsc1-c1ccc(CNC(=O)[C@@H]2C[C@@H](O)CN2C(=O)[C@@H](NC(=O)CCCCCCCCCCC(=O)Nc2ccc(C(=O)Nc3ccccc3N)cc2)C(C)(C)C)cc1
- DC50 [20]: 17000 nM

Structure (SMILES): O=C(CCCCCCNC(=O)c1ccc(NC(=O)COCCOCCNC(=O)COc2cccc3c2C(=O)N(C2CCC(=O)NC2=O)C3=O)cc1)NO (configuration not stated)
- DC50 [20]: 174 nM
- DC50 [21]: 248 nM
- DC50 [22]: 139 nM
- DC50 [17]: 27 nM

Structure (SMILES): O=C(CCCCCCN1CCN(c2ccc(Nc3ncc(F)c(-c4cn(C5CCCC5)nn4)n3)cc2)CC1)NO
- IC50 [23]: 23 nM

Structure (SMILES): O=C(Cc1ccc2ncccc2c1)Nc1ccccc1O
- IC50 (Histone deacetylase 3 [24]): 2000 nM

Structure (SMILES): COc1ccc(-c2ccc3c(NC(=O)CCCCCCC(=O)NO)n[nH]c3c2)cc1
- IC50 (Histone deacetylase 1 [25]): 2 nM
- IC50 (Histone deacetylase 2): 4 nM
- IC50 (Histone deacetylase 8 [26]): 4 nM

Structure (SMILES): CCCNNC(=O)c1ccc(Nc2nccc(N(C)c3ccc4c(C)n(C)nc4c3)n2)cc1
- IC50 [27]: 25 nM
- IC50 (Histone deacetylase 1 [28]): 420 nM
- half-life [12]: < 15 min
